According to patent publication US20220259165A1, “S-OXIDES OF 2,3-DIARYL-2,3-DIHYDRO-4H-1,3-THIAZIN-4-ONES AND 2,3-DIARYL-1,3-THIAZEPAN-4-ONES AND METHODS FOR MAKING” (The Penn State Research Foundation, priority 2019, published 2022):

Compound	melting point
CC(=O)N[C@H]1C[S@+]([O-])[C@@H](c2ccccc2)N(c2ccccc2)C1=O [Example 1b, N-[(1S,2S,5R)-1,4-dioxo-2,3-diphenyl-1λ^4,3-thiazinan-5-yl]acetamide]	176 to 179 °C
O=C1c2ccccc2[S+]([O-])C(c2ccccc2)N1c1ccccc1 (centres unmarked) [Example 1c, 2,3-diphenyl-2,3-dihydro-4H-1,3-benzothiazin-4-one 1-oxide]	208 to 209 °C
O=C1c2cccnc2[S+]([O-])C(c2ccccc2)N1c1ccccc1 (centres unmarked) [Example 1d, 2,3-diphenyl-2,3-dihydro-4H-pyrido[3,2-e]-[1,3]thiazin-4-one 1-oxide]	177 to 179 °C
O=C1CC2(CC2)C[S+]([O-])C(c2ccccc2)N1c1ccccc1 (centres unmarked) [Example 1e, 6,7-diphenyl-5λ^4-thia-7-azaspiro[2.6]nonane-5,8-dione]	193 to 194 °C

The next lines start with the values.

melting point	Compound
145 to 148 °C	O=C1CCS(=O)(=O)C(c2ccccc2)N1c1ccccc1 (centres unmarked) [Example 2a, 2,3-diphenyl-2,3,5,6-tetrahydro-4H-1,3-thiazin-4-one 1,1-dioxide]
170 to 194 °C (dec.)	CC(=O)N[C@H]1CS(=O)(=O)[C@@H](c2ccccc2)N(c2ccccc2)C1=O [Example 2b, N-[(2S,5R)-1,1,4-trioxo-2,3-diphenyl-1λ^6,3-thiazinan-5-yl]acetamide]
163 to 165 °C	O=C1c2ccccc2S(=O)(=O)C(c2ccccc2)N1c1ccccc1 (centres unmarked) [Example 2c, 2,3-diphenyl-2,3-dihydro-4H-1,3-benzothiazin-4-one 1,1-dioxide]
186.6 to 187.7 °C (dec.)	O=C1CC2(CC2)CS(=O)(=O)C(c2ccccc2)N1c1ccccc1 (centres unmarked) [Example 2e, 6,7-diphenyl-5?^6-thia-7-azaspiro[2.6]nonane-5,5,8-trione]
